Measurements as given in a flash point compilation (Sun et al. 2020).

Tests used:
[1] = not given; remark: listed apart in the source
[2] = not given; remark: listed apart in the source
[3] = not given; remark: listed apart in the source

Row | Structure (SMILES) | flash point [°C] | other results
1 | CC(=O)OCCC[Si](C)(Cl)Cl [3-ACETOXYPROPYLMETHYLDICHLOROSILANE] | 85.00 | –
2 | CO[Si](CCCOC(C)=O)(OC)OC [3-ACETOXYPROPYLTRIMETHOXYSILANE] | 93.00 | –
3 | CCO[Si](C)(C)CCCN [3-AMINOPROPYLDIMETHYLETHOXYSILANE] | 73.00 | –
4 | CCO[Si](CCCCN)(OCC)OCC [4-AMINOBUTYLTRIETHOXYSILANE] | 109.00 | –
5 | CCO[Si](CCCCCCS(=O)(=O)N=[N+]=[N-])(OCC)OCC [6-AZIDOSULFONYLHEXYLTRIETHOXYSILANE] | 114.00 | –
6 | CC(=O)OCC[Si](Cl)(Cl)Cl [ACETOXYETHYLTRICHLOROSILANE] | 82.00 | –
7 | CC(=O)OC[Si](C)(C)C [ACETOXYMETHYLTRIMETHYLSILANE] | 20.00 | –
8 | C=CC[Si](C)(C)N(C(C)C)C(C)C [ALLYLDIMETHYL(DIISOPROPYLAMINO)SILANE] | 62.00 | –
9 | C=CC[SiH](C)C [ALLYLDIMETHYLSILANE] | -20.00 | –
10 | CO[Si](CCCNCCN)(OC)OC [Aminoethylaminopropyltrimethoxysilane] | – | flash point [1]: 96 °C
11 | C[Si](C)(C)N=C=N[Si](C)(C)C [Bis(trimethylsilyl)carbodiimide] | – | flash point [1]: 42 °C
12 | CO[Si](C)(CCCNCCN)OC [N-(2-AMINOETHYL)-3-AMINOPROPYLMETHYLDIMETHOXYSILANE] | 90.00 | –
13 | C[Si](C)(C)CNCc1ccccc1 [N-BENZYLAMINOMETHYLTRIMETHYLSILANE] | 116.00 | –
14 | CN(C(=O)C(F)(F)F)[Si](C)(C)C [N-Methyl-N-trimethylsilyltrifluoroacetamide] | – | flash point [1]: 25 °C
15 | CC[Si](CC)(CC)CC [Tetraethylsilane] | – | flash point [1]: 26 °C; flash point [2]: 32.00 °C
16 | C[Si](C)(C)OB(O[Si](C)(C)C)O[Si](C)(C)C [Tris(trimethylsiloxy)boron] | – | flash point [1]: 42 °C
17 | C=C[Si](C)(C)O[Si](C)(C)C [Vinylpentamethyldisiloxane] | – | flash point [1]: 12 °C
18 | CCC[CH2][Ge]([Cl])([Cl])[Cl] [n-BUTYLTRICHLOROGERMANE] | – | flash point [3]: 82.00 °C

Further lines, with some results ahead:

Row | flash point [°C] | Structure (SMILES) | other results
19 | 26.00 | C=CC(=O)O[Si](C)(C)C [ACRYLOXYTRIMETHYLSILANE] | –
20 | 67.00 | C=CC[Si](O[Si](C)(C)C)(O[Si](C)(C)C)O[Si](C)(C)C [ALLYLTRIS(TRIMETHYLSILOXY)SILANE] | –
21 | 9.00 | C[Si](C)(C)CN [AMINOMETHYLTRIMETHYLSILANE] | –
22 | 65.00 | C[SiH](C)Cc1ccccc1 [BENZYLDIMETHYLSILANE] | –
23 | 180.00 | CO[Si](OC)(OC)c1ccc(N)cc1 [p-AMINOPHENYLTRIMETHOXYSILANE] | –
